Tests used:
Experiment in all cases: cells
Design in all cases: species or system panel of human cancer cell lines; Eurofins OncoPanel proliferation; nuclei count by high-content fluorescence imaging, 10-point dose response
Hs 821.T = conditions: 72 h, cell count, 3 days
Method in brief: (§1)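 Ten half-log concentrations from 100 μM (0.1% DMSO max) applied one day post-seeding, 3-day exposure at 37°C; untreated time-zero plate for GI50. Readout is nuclear cell count by automated fluorescence imaging, giving EC50, IC50, GI50 and 0–10 activity area.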

MC116 = conditions: Homo sapiens, MC116, 72 h, cell count, 3 days
Method in brief: as §1

DOHH-2 = conditions: Homo sapiens, DOHH-2, 72 h, cell count, 3 days
Method in brief: as §1

U266B1 = conditions: 72 h, cell count, 3 days
Method in brief: as §1

TT = conditions: Homo sapiens, TT, 72 h, cell count, 3 days
Method in brief: as §1

A-673 = conditions: Homo sapiens, A673, 72 h, cell count, 3 days
Method in brief: as §1

RKOE6 = conditions: Homo sapiens, RKOE6, 72 h, cell count, 3 days
Method in brief: as §1

JeKo-1 = conditions: Homo sapiens, JeKo-1, 72 h, cell count, 3 days
Method in brief: as §1

G-402 = conditions: Homo sapiens, G-402, 72 h, cell count, 3 days
Method in brief: as §1

KHOS-240S = conditions: KHOS-240S, 72 h, cell count, 3 days
Method in brief: as §1

SW1783 = conditions: Homo sapiens, SW1783, 72 h, cell count, 3 days
Method in brief: as §1

RPMI 6666 = conditions: Homo sapiens, RPMI-6666, 72 h, cell count, 3 days
Method in brief: as §1

MES-SA = conditions: Homo sapiens, MES-SA, 72 h, cell count, 3 days
Method in brief: as §1

SW403 = conditions: Homo sapiens, SW-403, 72 h, cell count, 3 days
Method in brief: as §1

[1] = 50% of maximum possible response

C[C@@H]1CC(=O)NN=C1c1ccc(NN=C(C#N)C#N)cc1 [levosimendan]
IC50 (Hs 821.T; [1]): > 100 µM | GI50 (Hs 821.T; corrected for time zero): > 100 µM | EC50 (Hs 821.T; curve inflection point): > 100 µM | IC50 (MC116; [1]): 14.9 µM | GI50 (MC116; corrected for time zero): 13.8 µM | EC50 (MC116; curve inflection point): 14.7 µM | IC50 (DOHH-2; [1]): 15.8 µM | GI50 (DOHH-2; corrected for time zero): 14.4 µM | EC50 (DOHH-2; curve inflection point): 15.8 µM | IC50 (U266B1; [1]): 95.7 µM | GI50 (U266B1; corrected for time zero): 46.2 µM | EC50 (U266B1; curve inflection point): 95.7 µM | IC50 (TT; [1]): > 100 µM | GI50 (TT; corrected for time zero): 14.3 µM | EC50 (TT; curve inflection point): > 100 µM | IC50 (A-673; [1]): 57.6 µM | GI50 (A-673; corrected for time zero): 44 µM | EC50 (A-673; curve inflection point): 57.6 µM | IC50 (RKOE6; [1]): 7.12 µM | GI50 (RKOE6; corrected for time zero): 6.28 µM | EC50 (RKOE6; curve inflection point): 6.96 µM | IC50 (JeKo-1; [1]): 24.7 µM | GI50 (JeKo-1; corrected for time zero): 20.9 µM | EC50 (JeKo-1; curve inflection point): 24.6 µM | IC50 (G-402; [1]): 10.1 µM | GI50 (G-402; corrected for time zero): 4.83 µM | EC50 (G-402; curve inflection point): 6.76 µM | IC50 (KHOS-240S; [1]): 16.9 µM | GI50 (KHOS-240S; corrected for time zero): 13.5 µM | EC50 (KHOS-240S; curve inflection point): 16.9 µM | IC50 (SW1783; [1]): 82.1 µM | GI50 (SW1783; corrected for time zero): 35.6 µM | EC50 (SW1783; curve inflection point): 82.1 µM | IC50 (RPMI 6666; [1]): 17.2 µM | GI50 (RPMI 6666; corrected for time zero): 11 µM | EC50 (RPMI 6666; curve inflection point): 17.2 µM | IC50 (MES-SA; [1]): 15.6 µM | GI50 (MES-SA; corrected for time zero): 13.7 µM | EC50 (MES-SA; curve inflection point): 15.6 µM | IC50 (SW403; [1]): 33.2 µM | GI50 (SW403; corrected for time zero): 14.4 µM | EC50 (SW403; curve inflection point): 28.7 µM

Reference: publication PMC6576746, “Rational discovery of dual-indication multi-target PDE/Kinase inhibitor for precision anti-cancer therapy using structural systems pharmacology” (PLoS Computational Biology, 2019)
